Experimental data as given in US7115666B2, “Nitrone compounds, pharmaceutical compositions containing the same and methods for treating inflammation and neuropathic pain” (Renovis, Inc., priority 2002, dated 2006).
“Also recorded” adds a separate entry of the source.

Tests used:
[1] = system: spinal nerve ligation model (Chung model); test: Spinal nerve ligation (Chung) model, mechanical allodynia; format: in vivo, rats; details: 25 mg/kg single dosing via i.p.; von Frey filaments
Protocol: Compound 14 and Compound 23 were prepared for i.p. administration as follows. 250 mg/ml of each of the compounds to be tested, was dissolved in a mixture of Cremophor EL/alcohol (90:10) (volume:volume), respectively, by brief sonication on ice, followed by further 10-fold dilution in saline solution (9% Cremophor EL; 1% ETOH and 90% saline) to give a final concentration of 25 mg/ml. before injection. 1 ml/kg (body weight) of compound solution was administered via i.p. to rats, to yield a dose of 25 mg/kg. 180–200 grams of body weight, male, Sprague-Dawley rats from Harlan were used. They were housed under the standard housing conditions and trained for 1 week before measurement of the baseline. The rats were prepared in the manner described in Example V, above, by i.p. admininstration of Taxol. The spinal nerve ligation surgery was performed as described by Kim & Chung (Kim, S. O., and Chung, J. M., An experimental model for peripheral neuropathy produced by segmental spinal nerve ligation in rat. Pain. 1992; 50:355–363.). The development of neuropathic pain was measured using 50% of threshold measurement using von Frey filaments. […] Generally speaking, the mechanical allodynia in spinal nerve ligation model rats fell in the range of 1–4 grams of the paw withdrawal threshold. The results of the tests are set forth in FIG. 8 and are summarized in the last two rows of Table III.

[2] = system: Taxol-induced neuropathic pain model in mice; test: Taxol-induced neuropathic pain model, mechanical allodynia (von Frey filament); format: in vivo
From the text: Taxol is a chemotherapeutic reagent for treatment of cancer patients. Cancer patients under Taxol chemotherapy can develop neuropathic pain, with a symptom of severe mechanical allodynia, so that a light touch (non-noxious stimulus in a normal condition) becomes painful. […] Recent studies have shown that Taxol is involved in TNF-alpha release in microglia cells. As one of the clinically relevant models, Taxol-induced neuropathic pain was developed in mice and rats. It is believed that small-diameter high threshold nociceptive C-fibers in the peripheral sensory nervous systems are largely, if not exclusively, affected in the Taxol-induced neuropathic pain models.
In this series of experiments, five-week old, male C57B1/6 mice were purchased from Charles River and housed at the Renovis animal facility in South San Francisco. Mice were trained for one week in an enclosure made of Plexiglas with dimensions of 2 in×2.5 in×3.5 in (W, H, and L) with a meshed metal support. The baseline of response to mechanical stimulus was measured using a von Frey Filament (0.6 g=3.84 mN). Normally, the baseline response is between 0 to 40%.
Taxol was dissolved (1 mg/ml) in 50% Cremophor EL and 50% alcohol, and freshly diluted with saline to the final concentration of 0.2 mg/ml in 10% Cremophor EL, 10% alcohol. Mice were administered Taxol at 1 mg/kg of body weight, via i.p. daily, while the animals of the control group received vehicle (10% Cremophor EL and 10% alcohol in saline).
Animals receiving this daily dose of Taxol will develop neuropathic pain. The mechanical allodynia was measured at day 7, 8, or 14 after Taxol administration.
A quantity of 200 mg of compound 14 (Example 14) was dissolved in 0.4 ml of 100% DMSO to yield a concentration of 500 mg/ml, and was kept at 4° C. until use. Methylcellulose was dissolved in deionized-distilled water to yield a concentration of 1%. The freshly prepared meythlcellulose was used to make a suspension of the compound, 10 mg of compound in 2.5% DMSO (V/V) and 1% methylcellulose. The suspension was sonicated for 6 min with a 5 second interval every 30 seconds before administration to animals.
A quantity of 50 mg/kg (body weight) compound or vehicle (2.5% DMSO and 1% methylcellulose), 100 μl/20 g (body weight) was given to animals via gavage feeding procedure in a randomized, blinded fashion. The animals were then placed in the enclosure for assay. Mechanical allodynia was measured with von Frey filament (0.6 g=[…]) at various times after administration.
Referring to FIG. 5, baseline in the group of animals was measured as 25+/−4% (n=24, ±SEM) before induction of neuropathic pain with Taxol (or sham treatment), where the response was measured with a von Frey filament (0.6 g=3.84 mN) as the percent of trials a withdrawal response is observed after probing with the filament. The higher the percentage, the greater the inferred pain.
Sixteen animals were treated with Taxol daily to induce neuropathic pain. Mechanical allodynia was assayed at day 8; average withdrawal response was measured as 81±5% (n=16, ±SEM). Sixteen animals were treated with matching vehicle to create sham animals. The Taxol and sham animals were then separated randomly into two groups of 8 animals each for drug vs. vehicle testing. Withdrawal responses to a von Frey filament probe were measured at 1, 6, 24, and 72 hours post-administration of drug or vehicle control, and averaged for each animal. […] Negative values reflect a reduction in inferred pain.
For mouse neuropathic pain studies, C57B1/6 strain, five-weeks old male mice were obtained from Charles River, San Diego, Calif. A total of 120 mice were used for the studies. 4 mice per cage were housed under standard conditions with 12-hour light and 12-hour dark cycles (in Renovis, Inc, South San Francisco facility). For rat neuropathic pain studies, male Sprague-Dawley rats, with body weights ranging from 180–200 grams, were obtained from Harlan. A total of 42 rats were used for this study. […]

[3] = Taxol/mice, P.O., Single dosing, 50 Mg/Kg body weight

## COc1ccc(CCCC=[N+]([O-])C(C)(C)C)cc1 [Compound 23]
[1]
  effect on mechanical allodynia (paw withdrawal threshold): significant analgesic effects over control; also recorded: attenuate mechanical allodynia

## N-tert-butyl-C-(4-phenylpropyl)nitrone [Compound 14]
[1]
  effect on mechanical allodynia (paw withdrawal threshold): significant analgesic effects over control; also recorded: attenuate mechanical allodynia
[2]; 50 mg/kg single dose via oral gavage
  time postdosing of analgesic effect: up to 24 hour
[2]; 50 mg/kg single dose via oral gavage, von Frey filament 0.6 g, measured 1, 6, 24, up to 48 or 72 hours postdosing
  effect on mechanical allodynia (Taxol-induced pain): inhibits mechanical allodynia; also recorded: significant reduction of mechanical allodynia; also recorded: activity preventing Taxol-induced pain
[2]; [3]
  Effective time Hour post dosing: ~24 h
  extent of block of mechanical allodynia: block
